Results reported in patent publication US20110250273A1, “COMPOSITIONS OF PROTON PUMP INHIBITORS, KITS AND METHODS OF THEIR USE TO TREAT DIABETES” (Melford Scientific, LLC, priority 2008, published 2011).
Marks after values point to notes of the source that are not given here.

How the values were obtained:
Type in all cases: in vivo, human
[1] = system: Type II diabetic patients; experiment: Population comparison of HgbA1c in treated diabetic patients with or without a PPI (Examples 1-3); settings: Example 2; 53 Metformin only patients, 11 Metformin plus proton pump inhibitor
Procedure: For a population of 347 Type II diabetic patients with recent HgbA1c measurements of an average 7.53% with a standard deviation of +/−1.77%. All were treated using insulin injections and/or a variety of oral agents, such as the above noted metformin, and other anti-diabetic medicines. The patients were treated for differing periods of time ranging from 3 months to 30 years.
The two groups were compared using a two-Sample T test that is a classical statistical test. […] The difference between the two groups was 0.61%, which is a significant difference with a p-value of 0.002.
64 total patients, of which 53 patients that were treated using only Metformin for the treatment of diabetes and 11 took Metformin and a proton pump inhibitor.
In this population, 79 patients were dosed with a sulfonylurea, either alone or in combination with metformin and/or pioglitazone or rosiglitazone. These 79 patients were not provided with insulin or sitagliptin.

[2] = system: Type II diabetic patients; experiment: 2 hour glucose tolerance test during 24 week omeprazole trial (Example 4); settings: for C-Peptide 1 hour / C-Peptide 2 hours / Glucose 1 hour / Glucose 2 hours / Insulin 1 hour / Insulin 2 hours: after 75 g glucose
Procedure: (§1) Seven Type II diabetic patients were administered omeprazole for 24 weeks and data was obtained from fasting and following a 2 hour glucose tolerance test at 8 week intervals and compared to baseline values. Statistical comparisons and analysis were performed with a commercial program, Analyse-it, version 2.20.
(§2) Subjects: Five males, 2 females, age range 42-68 years, mean age 54+10 years. BMI's ranged from 31 to 49, mean 38+6. All subjects had co-morbid hypertension, four had co-morbid dyslipidemia and two had co-morbid hypothyroidism. All were stable on oral diabetes medications with 7/7 on metformin, 6/7 on pioglitazone (Actos), 4/7 on a DPP-4 inhibitor, sitagliptan (Januvia) and 4/7 on a Sulfonylurea. All subjects received a physical exam, review of systems and a baseline EKG prior to initiating the PPI trial. Subjects were then seen and evaluated at monthly intervals interviewed for adverse events and monitored for medication compliance and maintenance of daily blood glucose logs.
(§3) Design: All subjects continued on their respective oral antidiabetic medications throughout the study. Baseline data was obtained in a fasting state after an overnight fast. Subjects were then administered 75 g of glucose and blood samples obtained at 1 and 2 hours. Following collection of baseline data, subjects were administered Omeprazole Delayed-Release Capsules USP, (Apotex Inc., Toronto, Canada M9L 179), 40 mg orally twice daily and blood samples again obtained after 8, and 16 weeks. Medications were not taken on the mornings of testing. Following the 16 week sample collection, subjects were increased to 80 mg Omeprazole twice daily and blood samples again obtained at 24 weeks.
(§4) Measurements: Helicobacter Pylori IgG was obtained on each subject as a baseline as were Hemoglobin A1c and fasting Gastrin. Each 2 hour glucose tolerance test provided fasting glucose, insulin and c-peptide as well as 1 hour and 2 hour glucose and stimulated insulin and c-peptide. All measurements were obtained through a commercial laboratory using standardized analytical methods, Quest Diagnostics Laboratory, 5850 Rogerdale Road, Houston, Tex. 77072.

[3] = system: Type II diabetic patients; experiment: Tolerability / adverse events in 24 week omeprazole trial (Example 4); settings: all doses (40 mg and 80 mg twice daily), 24 weeks
Text: as §2, §3

[4] = system: Type II diabetic patients; experiment: Hemoglobin A1c, Beta cell area and plasma gastrin during 24 week omeprazole trial (Example 4); settings: for Beta Cell Area, %: calculated using the 2 hour glucose tolerance value by the method of Meier et al
Procedure: as §1, §2, §3, §4
Table 2 summarizes the effects of PPI administration on plasma Gastrin, Hemoglobin A1c and % Beta Cell area (calculated using the 2 hour glucose tolerance value by the method of Meier et al, Diabetes, vol 58, 1595-1603, 2009). […] Hemoglobin A1c, a measure of average blood glucose, was reduced by approximately 0.9% in this cohort, consistent with improved diabetes control (FIG. 5). Finally, the calculated Beta cell mass increased across the treatment period by approximately 25%.

[5] = 8 weeks PPI, Omeprazole 40 mg orally twice daily
[6] = 16 weeks PPI, Omeprazole 40 mg orally twice daily
[7] = 24 weeks PPI, increased to 80 mg Omeprazole twice daily after week 16

Structure (SMILES): CN(C)C(=N)N=C(N)N [Metformin]
- Average HgbA1c [1]: 7.27%

Structure (SMILES): COc1ccc2[nH]c([S+]([O-])Cc3ncc(C)c(OC)c3C)nc2c1 (centres unmarked) [Omeprazole, 5-methoxy-2-[(4-methoxy-3,5-dimethyl-2-pyridinyl)methyl]sulfinyl-1H-benzimidazole]
- C-Peptide Fasting [2, 5]: 4.0
- Glucose Fasting [2, 5]: 127
- Insulin Fasting [2, 5]: 13.6
- C-Peptide 1 hour [2, 5]: 7.1
- C-Peptide 2 hours [2, 5]: 8.6***
- Glucose 1 hour [2, 5]: 235#
- Glucose 2 hours [2, 5]: 226
- Insulin 1 hour [2, 5]: 38.7
- Insulin 2 hours [2, 5]: 29.9
- C-Peptide Fasting [2, 6]: 3.4
- Glucose Fasting [2, 6]: 136
- Insulin Fasting [2, 6]: 12
- C-Peptide 1 hour [2, 6]: 6.0
- C-Peptide 2 hours [2, 6]: 7.9#
- Glucose 1 hour [2, 6]: 206*
- Glucose 2 hours [2, 6]: 229**
- Insulin 1 hour [2, 6]: 24.7
- Insulin 2 hours [2, 6]: 36.1
- C-Peptide Fasting [2, 7]: 3.6
- Glucose Fasting [2, 7]: 147
- Insulin Fasting [2, 7]: 10.9
- C-Peptide 1 hour [2, 7]: 5.8
- C-Peptide 2 hours [2, 7]: 7.9+
- Glucose 1 hour [2, 7]: 251
- Glucose 2 hours [2, 7]: 258
- Insulin 1 hour [2, 7]: 25
- Insulin 2 hours [2, 7]: 34
- 1 and 2 hour c-peptide secretion ([2]; after PPI administration): increased
- Fasting insulin levels ([2]; after PPI administration): unchanged
- Stimulated insulin secretion ([2]; at both 1 and 2 hours, after PPI administration): increased
- Maximum glucose excursion versus baseline ([2]; at both 1 and 2 hours, 8 and 16 weeks, statistically significant at 16 weeks): reduced
- Fasting blood glucose versus baseline ([2]; at both 8 and 16 weeks): reduced
- Adverse events [3]: no reports of adverse events
- Tolerability [3]: well tolerated
- Percent hemoglobin A1c reduction from baseline ([4]; 8, 16 and 24 weeks after taking PPI, FIG. 5): at least 0.6%
- Hemoglobin A1c, % [4, 5]: 7.7%
- Plasma Gastrin [4, 5]: 207 pg/mL
- Beta Cell Area, % ([4]; 8 weeks PPI): 0.46%
- Hemoglobin A1c, % [4, 6]: 7.8%
- Plasma Gastrin [4, 6]: 174 pg/mL
- Beta Cell Area, % ([4]; 16 weeks PPI): 0.51%
- Beta Cell Area, % ([4]; 24 weeks PPI): 0.40%
- Hemoglobin A1c, % [4, 7]: 7.9%
- Plasma Gastrin [4, 7]: 232 pg/mL
- Calculated Beta cell mass increase ([4]; across the treatment period): approximately 25%
- Change in percent hemoglobin A1c ([4]; all patients, statistically significant, FIG. 1): decrease
- Hemoglobin A1c reduction ([4]; in this cohort of seven patients, versus baseline): approximately 0.9%
- Plasma gastrin versus baseline ([4]; long term PPI administration, serum levels gradually reduced over time): markedly elevated
- Slope of linear best fit of hemoglobin A1c ([4]; seven type II diabetics, 24 week trial, FIG. 1): −0.021 % (HgbA1c) per week
